From patent publication US9346812B2, “Substituted pyrrolopyrimidine compounds, compositions thereof, and methods of treatment therewith” (Signal Pharmaceutical LLC, priority 2013, dated 2016) come the findings set out here.

The subject of the assay is CAL51 cell proliferation. Briefly: Cell Titer Glo Proliferation Assay (CAL51). The class given is cell-based, human. The conditions noted are these: Homo sapiens, CAL-51; CAL51 cell proliferation, 72 h, Cell Titer Glo luminescence; read-out: Act. Level. The method in brief: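 Viability is measured by CellTiter-Glo luminescence after 72 h of compound exposure. CAL51 cells were seeded in growth medium with 10% FBS and 2 mM glutamine, cultured overnight, then dosed with compound dilutions, vehicle held at 0.2% DMSO.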
(ATP-based viability assays read luminescence as a measure of living cells.)

Regarding `CNC(=O)c1ccc(Nc2nc(OC(C)C)c3c(-c4ccnn4C)c[nH]c3n2)c(OC)c1` [Example 226, 4-(4-isopropoxy-5-(1-methyl-1H-pyrazol-5-yl)-7H-pyrrolo[2,3-d]pyrimidin-2-ylamino)-3-methoxy-N-methylbenzamide], the IC50 is 1 to 10 µM.
Then `COc1cc(C(=O)NCCF)ccc1Nc1nc(OC2CCCC2)c2c(-c3ccc4nc(C)oc4c3)c[nH]c2n1` [Example 256, 4-(4-(cyclopentyloxy)-5-(2-methylbenzo[d]oxazol-6-yl)-7H-pyrrolo[2,3-d]pyrimidin-2-ylamino)-N-(2-fluoroethyl)-3-methoxybenzamide], with 0.1 to 0.4 µM.
Then `CNC(=O)c1ccc(-c2c[nH]c3nc(Nc4ccc(C(=O)NCCO)cc4OC)nc(OC4CCCC4)c23)cc1` [Example 258, 4-(4-(cyclopentyloxy)-5-(4-(methylcarbamoyl)phenyl)-7H-pyrrolo[2,3-d]pyrimidin-2-ylamino)-N-(2-hydroxyethyl)-3-methoxybenzamide], with below 0.1 µM; and `COc1cc(C(=O)NCCO)ccc1Nc1nc(OC2CCOCC2)c2c(-c3ccc4nc(C)oc4c3)c[nH]c2n1` [Example 213, N-(2-hydroxyethyl)-3-methoxy-4-(5-(2-methylbenzo[d]oxazol-6-yl)-4-(tetrahydro-2H-pyran-4-yloxy)-7H-pyrrolo[2,3-d]pyrimidin-2-ylamino)benzamide], with below 0.1 µM; and `CNC(=O)c1cccc(-c2c[nH]c3nc(Nc4ccc(C(=O)NC)cc4C)nc(OC4CCOCC4)c23)c1` [Example 144, N,3-dimethyl-4-(5-(3-(methyl-carbamoyl)phenyl)-4-(tetrahydro-2H-pyran-4-yloxy)-7H-pyrrolo[2,3-d]pyrimidin-2-ylamino)benzamide], with 1 to 10 µM.
`CNC(=O)c1ccc(Nc2nc(OC3CCCC3)c3c(-c4ccc(O)c(C#N)c4)c[nH]c3n2)c(OC)c1` [Example 33, 4-(5-(3-cyano-4-hydroxyphenyl)-4-(cyclopentyloxy)-7H-pyrrolo[2,3-d]pyrimidin-2-ylamino)-3-methoxy-N-methylbenzamide]: the IC50 was below 0.1 µM.
Then `CNC(=O)c1ccc(Nc2nc(O[C@H]3CC[C@@](C)(O)CC3)c3c(-c4ccc5nc(C)oc5c4)c[nH]c3n2)c(C)c1` [Example 151, 4-(4-((1s,4s)-4-hydroxy-4-methylcyclohexyloxy)-5-(2-methylbenzo[d]oxazol-6-yl)-7H-pyrrolo[2,3-d]pyrimidin-2-ylamino)-N,3-dimethylbenzamide], with below 0.1 µM.
Then `COc1cc(NC(C)=O)ccc1Nc1nc(OC2CCCC2)c2c(-c3ccc4nc(C)oc4c3)c[nH]c2n1` [Example 247, N-(4-(4-(cyclopentyloxy)-5-(2-methylbenzo[d]oxazol-6-yl)-7H-pyrrolo[2,3-d]pyrimidin-2-ylamino)-3-methoxyphenyl) acetamide], with 0.1 to 0.4 µM; and `COc1cc(C(=O)N[C@H]2C[C@H](O)C2)ccc1Nc1nc(OC2CCCC2)c2c(-c3ccc4nc(C)oc4c3)c[nH]c2n1` [Example 239, 4-(4-(cyclopentyloxy)-5-(2-methylbenzo[d]oxazol-6-yl)-7H-pyrrolo[2,3-d]pyrimidin-2-ylamino)-N-((1r,3r)-3-hydroxycyclobutyl)-3-methoxybenzamide], with below 0.1 µM.
Then `COc1cc(C(=O)N2CCC(OC)CC2)ccc1Nc1nc(OC2CCCC2)c2c(-c3ccc4nc(C)oc4c3)c[nH]c2n1` [Example 275, (4-(4-(cyclopentyloxy)-5-(2-methylbenzo[d]oxazol-6-yl)-7H-pyrrolo[2,3-d]pyrimidin-2-ylamino)-3-methoxyphenyl)(4-methoxypiperidin-1-yl)methanone], with below 0.1 µM.
Consider `CNC(=O)c1ccc(Nc2nc(O[C@H]3CC[C@H](O)CC3)c3c(-c4ccc5nc(C)oc5c4)c[nH]c3n2)c(OC)c1` [Example 137, 4-(4-((1r,4r)-4-hydroxycyclo-hexyloxy)-5-(2-methylbenzo[d]oxazol-6-yl)-7H-pyrrolo[2,3-d]pyrimidin-2-ylamino)-3-methoxy-N-methylbenzamide], for which the IC50 was below 0.1 µM.
In the case of `CNC(=O)c1ccc(Nc2nc(OC3CCOCC3)c3c(-c4ccncc4)c[nH]c3n2)c(OC)c1` [Example 114, 3-methoxy-N-methyl-4-(5-(pyridin-4-yl)-4-(tetrahydro-2H-pyran-4-yloxy)-7H-pyrrolo[2,3-d]pyrimidin-2-ylamino)benzamide], the IC50 was below 0.1 µM.
As for `CNC(=O)c1ccc(Nc2nc(OC3CCOCC3)c3c(-c4cncnc4)c[nH]c3n2)c(OC)c1` [Example 154, 3-methoxy-N-methyl-4-(5-(pyrimidin-5-yl)-4-(tetrahydro-2H-pyran-4-yloxy)-7H-pyrrolo[2,3-d]pyrimidin-2-ylamino) benzamide], the IC50 lay in the range of 0.1 to 0.4 µM.
Then `CNC(=O)c1ccc(Nc2nc(OC3CCOCC3)c3c(-c4ccnc(O)c4)c[nH]c3n2)c(OC)c1` [Example 147, 4-(5-(2-hydroxypyridin-4-yl)-4-(tetrahydro-2H-pyran-4-yloxy)-7H-pyrrolo[2,3-d]pyrimidin-2-ylamino)-3-methoxy-N-methylbenzamide], with 0.1 to 0.4 µM.
Then `CNC(=O)c1ccc(Nc2nc(OC3CCCC3)c3c(-c4ccc5cnn(C)c5c4)c[nH]c3n2)c(OC)c1` [Example 278, 4-(4-(cyclopentyloxy)-5-(1-methyl-1H-indazol-6-yl)-7H-pyrrolo[2,3-d]pyrimidin-2-ylamino)-3-methoxy-N-methylbenzamide], with 0.4 to 1 µM; and `CNC(=O)c1ccc(Nc2nc(OC(C)C)c3c(-c4ccc(-c5ncc[nH]5)cc4)c[nH]c3n2)c(OC)c1` [Example 193, 4-(5-(4-(1H-imidazol-2-yl)phenyl)-4-isopropoxy-7H-pyrrolo [2,3-d]pyrimidin-2-ylamino)-3-methoxy-N-methylbenzamide], with below 0.1 µM; and `CNC(=O)c1ccc(Nc2nc(O[C@H]3CCOC3)c3c(-c4cnn(C)c4)c[nH]c3n2)c(C(C)C)c1` [Example 208, (S)-3-isopropyl-N-methyl-4-(5-(1-methyl-1H-pyrazol-4-yl)-4-(tetahydrofuran-3-yloxy)-7H-pyrrolo[2,3-d]pyrimidin-2-ylamino)benzamide], with 0.1 to 0.4 µM.
For the compound `CNC(=O)c1ccc(Nc2nc(OC3CCCC3)c3c(-c4ccc(NC(C)=O)c(O)c4)c[nH]c3n2)c(OC)c1` [Example 290, 4-(5-(4-acetamido-3-hydroxy-phenyl)-4-(cyclopentyloxy)-7H-pyrrolo[2,3-d]pyrimidin-2-ylamino)-3-methoxy-N-methylbenzamide], the IC50 lay within 0.1 to 0.4 µM.
Then `COc1cc(-c2cn[nH]c2)ccc1Nc1nc(OC2CCCC2)c2c(-c3ccc(O)cc3)c[nH]c2n1` [Example 50, 4-(4-(cyclopentyloxy)-2-(2-methoxy-4-(1H-pyrazol-4-yl)phenylamino)-7H-pyrrolo[2,3-d]pyrimidin-5-yl) phenol], with below 0.1 µM.
The result for `CC[C@H](C)Oc1nc(Nc2ccc(C(=O)NC)cc2OC)nc2[nH]cc(-c3cnn(C)c3)c12` [Example 276, (S)-4-(4-sec-butoxy-5-(1-methyl-1H-pyrazol-4-yl)-7H-pyrrolo[2,3-d]pyrimidin-2-ylamino)-3-methoxy-N-methylbenzamide] reads below 0.1 µM.
Then `CNC(=O)c1ccc(Nc2nc(OC3CCOCC3)c3c(-c4ccc5nc(C)n(C)c5c4)c[nH]c3n2)c(OC)c1` [Example 148, 4-(5-(1,2-dimethyl-1H-benzo[d]imidazol-6-yl)-4-(tetrahydro-2H-pyran-4-yloxy)-7H-pyrrolo[2,3-d]pyrimidin-2-ylamino)-3-methoxy-N-methylbenzamide], with below 0.1 µM.
